Results taken from patent US20260265684A1, “EIMERIA VACCINE” (priority 2024, published 2026).

Columns and labels:
[1] = test system: E. maxima oocysts; type: cell-based; settings: for relative difference in oocyst counts compared to group 1 (percentage difference), R1: replicate R1, post sporulation; for relative difference in oocyst counts compared to group 1 (percentage difference), R3: replicate R3, post sporulation
[2] = test system: Eimeria oocysts (E. acervulina, E. brunetti, E. maxima, E. mitis, E. necatrix and E. tenella); experiment: Sporulation of Eimeria oocysts in different media, all species (Example 1); type: cell-based; settings: for Average sporulation % across all species: 48 hours at 27° C., 150 rpm, three replicates, six species
[3] = test system: E. necatrix oocysts; experiment: Sporulation in different media: sporulation and post-sporulation oocyst count (Example 1); type: cell-based; settings: for relative difference in oocyst counts compared to group 1 (percentage difference), R1: replicate R1, post sporulation; for relative difference in oocyst counts compared to group 1 (percentage difference), R3: replicate R3, post sporulation
[4] = test system: E. acervulina oocysts; type: cell-based; settings: for relative difference in oocyst counts compared to group 1 (percentage difference), R1: replicate R1, post sporulation; for relative difference in oocyst counts compared to group 1 (percentage difference), R3: replicate R3, post sporulation
[5] = test system: E. tenella oocysts; type: cell-based; settings: for relative difference in oocyst counts compared to group 1 (percentage difference), R1: replicate R1, post sporulation; for relative difference in oocyst counts compared to group 1 (percentage difference), R3: replicate R3, post sporulation
[6] = test system: E. brunetti oocysts; experiment: Sporulation in different media: sporulation and post-sporulation oocyst count (Example 1); type: cell-based; settings: for relative difference in oocyst counts compared to group 1 (percentage difference), R1: replicate R1, post sporulation; for relative difference in oocyst counts compared to group 1 (percentage difference), R3: replicate R3, post sporulation
[7] = test system: E. mitis oocysts; type: cell-based; settings: for relative difference in oocyst counts compared to group 1 (percentage difference), R1: replicate R1, post sporulation; for relative difference in oocyst counts compared to group 1 (percentage difference), R3: replicate R3, post sporulation
[8] = test system: Staphylococcus aureus ATCC 6538; settings: after the 48 hours, 27° C.; FIG. 18A
Experimental: (§1) Each organism was exposed to each chemical mimicking the duration and conditions they would be used with for sporulation or sterilisation.
(§2) Organism suspensions were prepared by sub-culturing onto an appropriate growth plate and incubating under standard conditions. The growth was harvested and suspended in appropriate media. The starting titre for most organisms once inoculated into the test media was approximately ≤10^6 CFU/mL.
(§3) 0.1 mL of the harvested bacterial or fungal suspension was added to 9.9 mL of the solution being tested in a sterile glass vial (McCartney container). The inoculated solutions were incubated at 27° C. Zero hours samples were done with sterile water and not the solution being tested to determine a baseline for log reduction calculations. At the appropriate time point, 1 mL of sample was combined with 9 mL of sodium thiosulfate neutralizer (the 10:1 dilution). Serial dilutions in Peptone water (PEP) from 10^−2 to 10^−6 were plated out onto either TSA (bacterial) or SDA (fungal) plates. The 10^−1 dilution in neutraliser was also plated. Plates were incubated according to the organisms' requirements and the number of colonies counted at the end of the incubation period.

[9] = test system: Pseudomonas aeruginosa ATCC 9027; settings: 27° C.; FIG. 18A
Experimental: as §1, §2, §3

[10] = test system: Candida albicans ATCC 10231; settings: 27° C., FIG. 18A
Experimental: as §1, §2, §3

[11] = test system: microorganisms other than the Eimeria; type: cell-based; settings: replicate sterility averaged across the 6 species; FIG. 13
[12] = test system: microorganisms other than the Eimeria; type: cell-based; settings: across 1%, 3% and 5% solids and all species
[13] = test system: Eimeria oocysts; experiment: Sporulation at variable solids content (Example 2); type: cell-based; settings: 1%, 3% and 5% solids
[14] = test system: E. maxima oocysts; experiment: Sporulation in 2% Proxitane with detergents, initial experiments (Example 4); type: cell-based
Experimental: (§4) The 2% Proxitane (~1000 ppm peracetic acid) sporulation media was prepared as described in Example 1. Detergents were added to the 2% Proxitane (~1000 ppm peracetic acid) solution at two concentrations: 0.05% solution and 0.5% solution. A 30% solution of Sarkosyl in 2% Proxitane (~1000 ppm peracetic acid) was prepared first before diluting to the desired concentration. Docusate dissolved in water with heat (up 90° C.) before adding the Proxitane.
(§5) Oocysts were sporulated in 15 or 50 mL tubes with at least 80% headspace (i.e. 10 mL liquid in 50 mL tube max). The amount of solids (unsporulated oocysts+debris) in this experiments was set to 2%, i.e. a solids ratio of 1:49.
(§6) All samples were incubated at 27° C. and about 150 rpm in the shaking incubator for 48 hours. Following sporulation, samples were either stored at 4-8° C. or evaluated immediately.
(§7) Sporulation level and oocyst health was evaluated as described in Example 1.

[15] = test system: E. mitis oocysts; experiment: Sporulation in 2% Proxitane with anionic detergents, follow up trial (Example 4); type: cell-based; settings: detergent 0.05% in 2% Proxitane; FIG. 19
Experimental: as §4, §5, §6, §7

Row | SMILES | relative difference in oocyst counts compared to group 1 (percentage difference), R1 [1] [%] | relative difference in oocyst counts compared to group 1 (percentage difference), R3 [1] [%] | Average sporulation % across all species [2] [%] | relative difference in oocyst counts compared to group 1 (percentage difference), R1 [3] [%] | relative difference in oocyst counts compared to group 1 (percentage difference), R3 [3] [%] | relative difference in oocyst counts compared to group 1 (percentage difference), R1 [4] [%] | relative difference in oocyst counts compared to group 1 (percentage difference), R3 [4] [%] | relative difference in oocyst counts compared to group 1 (percentage difference), R1 [5] [%] | relative difference in oocyst counts compared to group 1 (percentage difference), R3 [5] [%] | relative difference in oocyst counts compared to group 1 (percentage difference), R1 [6] [%] | relative difference in oocyst counts compared to group 1 (percentage difference), R3 [6] [%] | relative difference in oocyst counts compared to group 1 (percentage difference), R1 [7] [%] | relative difference in oocyst counts compared to group 1 (percentage difference), R3 [7] [%] | sterility [11] | other results
1 | O=CCCCC=O [0.2% glutaraldehyde, glutaraldehyde] | 3 | −3 | 78 | 7 | −61.49 | 1.31 | −1 | 3.12 | 30.08 | 3 | 91 | 8.68 | 1 |  | 
2 | OO [0.5% hydrogen peroxide, hydrogen peroxide] | 5 | −13 | 81 | 25 | −15.15 | 11.16 | −298 | 17.92 | 26.75 | −13 | 92 | 29.90 | 17 | 80% | sporulating oocysts compared with control group 1 ([2]; averaged sporulation from 3 replicates, across all the species tested (FIGS. 7-12)): comparable to or better than control group 1; viability after treatment [8]: still viable; time to inactivation [9]: within the first hour; reduction of titre before going back up at the last time point [10]: 4.32 logs; viability after treatment ([10]; after the 48 hours): still viable; samples failing sterility (fail rate) [12]: 21%; sporulation compared with dichromate (in words) [13]: good sporulation compared to dichromate except with 5% solids
3 | O=S(=O)([N-]Cl)c1ccccc1.[Na+] [1% chloramine B, chloramine B] | −4 | −4 | 81 | 24 | −27.13 | 9.43 | −137 | −1.16 | 40.83 | −7 | 91 | 12.16 | 8 |  | 
4 | [K+].[K+].[O]=[Cr](=[O])([O-])[O][Cr](=[O])(=[O])[O-] [2% potassium dichromate, potassium dichromate, reference compound] |  |  |  |  |  |  |  |  |  |  |  |  |  | failed to achieve sterility | sterility outcome (in words) [12]: failed to sterilise the material
5 | CCCCCCCCCCCCOS(=O)(=O)[O-].[Na+] [SDS] |  |  |  |  |  |  |  |  |  |  |  |  |  |  | percent sporulation ([14]; detergent 0.5% in 2% Proxitane, 2% solids, 48 hours): 40%; sticking of debris and oocysts ([14]; detergent in 2% Proxitane, data not shown): reduce sticking; oocyst damage ([14]; upon prolonged storage): cause damage to the oocyst wall
6 | CCCCCCCCCCCC(=O)N(C)CC(=O)[O-].[Na+] [sarkosyl, Sarkosyl] |  |  |  |  |  |  |  |  |  |  |  |  |  |  | sticking of debris to oocyst walls [15]: sticking of debris to oocyst walls was found
